pIC50: −log10 of the molar value.
What follows are compounds tested on NB12 (assay: cells). Details: Homo sapiens.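 Also: growth inhibition of human NB12 cells, read out by a cell viability assay.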
Type: functional, cell-based
Description: SANGER: Inhibition of human NB12 cell growth in a cell viability assay.
`NC(=O)Nc1cc(-c2cccc(F)c2)sc1C(=O)N[C@H]1CCCNC1` [AZD-7762] was tested, and the pIC50 was under 5.70.

Each compound was assayed on NCI-H1666 (assay: cells). Details: Homo sapiens.
Type: functional, cell-based
Description: SANGER: Inhibition of human NCI-H1666 cell growth in a cell viability assay.
`NC(=O)Nc1cc(-c2cccc(F)c2)sc1C(=O)N[C@H]1CCCNC1` [AZD-7762] showed a pIC50 of under 5.70.

Each compound was assayed on LCLC-97TM1 (assay: cells). Details: Homo sapiens.
Type: functional, cell-based
Description: SANGER: Inhibition of human LCLC-97TM1 cell growth in a cell viability assay.
Work on `NC(=O)Nc1cc(-c2cccc(F)c2)sc1C(=O)N[C@H]1CCCNC1` [AZD-7762] yielded a pIC50 of 6.50.

These compounds were tested on Detroit 562 (assay: cells). Details: Homo sapiens.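 Also: growth inhibition of human Detroit 562 cells, read out by a cell viability assay.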
Type: functional, cell-based
Description: SANGER: Inhibition of human Detroit562 cell growth in a cell viability assay.
`NC(=O)Nc1cc(-c2cccc(F)c2)sc1C(=O)N[C@H]1CCCNC1` [AZD-7762] gave a pIC50 of 6.48.

The compounds below were run on TGBC11TKB (assay: cells). Details: Homo sapiens.
Type: functional, cell-based
Description: SANGER: Inhibition of human TGBC11TKB cell growth in a cell viability assay.
`NC(=O)Nc1cc(-c2cccc(F)c2)sc1C(=O)N[C@H]1CCCNC1` [AZD-7762] gave a pIC50 of 6.95.

These compounds were tested on COR-L23 (assay: cells). Details: Homo sapiens.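 Also: cell viability assay measuring how strongly compounds suppress growth of COR-L23 cells.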
Type: functional, cell-based
Description: SANGER: Inhibition of human COR-L23 cell growth in a cell viability assay.
Work on `NC(=O)Nc1cc(-c2cccc(F)c2)sc1C(=O)N[C@H]1CCCNC1` [AZD-7762] yielded a pIC50 of 6.39.

These compounds were tested on EW-24 (assay: cells). Details: Homo sapiens, EW-24.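 Also: human EW-24 cancer cell line, growth inhibition read out via a cell viability assay.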
Type: functional, cell-based, Homo sapiens
Description: SANGER: Inhibition of human EW-24 cell growth in a cell viability assay.
For `NC(=O)Nc1cc(-c2cccc(F)c2)sc1C(=O)N[C@H]1CCCNC1` [AZD-7762], the pIC50 was 6.54.

What follows are compounds tested on COLO-741 (assay: cells). Details: Homo sapiens.
Type: functional, cell-based
Description: SANGER: Inhibition of human COLO-741 cell growth in a cell viability assay.
With `NC(=O)Nc1cc(-c2cccc(F)c2)sc1C(=O)N[C@H]1CCCNC1` [AZD-7762] the pIC50 was under 5.70.

Each compound was assayed on LoVo (assay: cells). Details: Homo sapiens.
Type: functional, cell-based
Description: SANGER: Inhibition of human LoVo cell growth in a cell viability assay.
`NC(=O)Nc1cc(-c2cccc(F)c2)sc1C(=O)N[C@H]1CCCNC1` [AZD-7762] was tested, and the pIC50 was 6.79.

What follows are compounds tested on PC-14 (assay: cells). Details: Homo sapiens.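 Also: cell viability assay measuring inhibition of PC-14 cell growth.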
Type: functional, cell-based
Description: SANGER: Inhibition of human PC-14 cell growth in a cell viability assay.
For `NC(=O)Nc1cc(-c2cccc(F)c2)sc1C(=O)N[C@H]1CCCNC1` [AZD-7762], the pIC50 was 6.38.

Each compound was assayed on D-392MG (assay: cells). Details: Homo sapiens.
Type: functional, cell-based
`NC(=O)Nc1cc(-c2cccc(F)c2)sc1C(=O)N[C@H]1CCCNC1` [AZD-7762] gave a pIC50 of 6.34.

These compounds were tested on RERF-LC-MS (assay: cells). Details: Homo sapiens.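 Also: growth inhibition of human RERF-LC-MS cells, read out by a cell viability assay.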
Type: functional, cell-based
Description: SANGER: Inhibition of human RERF-LC-MS cell growth in a cell viability assay.
In the case of `NC(=O)Nc1cc(-c2cccc(F)c2)sc1C(=O)N[C@H]1CCCNC1` [AZD-7762], the pIC50 was 6.17.

What follows are compounds tested on CFPAC-1 (assay: cells). Details: Homo sapiens.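 Also: cell viability readout used to gauge suppression of CFPAC-1 cell proliferation.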
Type: functional, cell-based
Description: SANGER: Inhibition of human CFPAC-1 cell growth in a cell viability assay.
Work on `NC(=O)Nc1cc(-c2cccc(F)c2)sc1C(=O)N[C@H]1CCCNC1` [AZD-7762] yielded a pIC50 of 6.14.

What follows are compounds tested on BEN (assay: cells). Details: Homo sapiens.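 Also: growth inhibition of the BEN cell line, read out with a cell viability assay.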
Type: functional, cell-based
Description: SANGER: Inhibition of human BEN cell growth in a cell viability assay.
Work on `NC(=O)Nc1cc(-c2cccc(F)c2)sc1C(=O)N[C@H]1CCCNC1` [AZD-7762] yielded a pIC50 of under 5.70.

Each compound was assayed on NCI-H2291 (assay: cells). Details: Homo sapiens.
Type: functional, cell-based
Description: SANGER: Inhibition of human NCI-H2291 cell growth in a cell viability assay.
`NC(=O)Nc1cc(-c2cccc(F)c2)sc1C(=O)N[C@H]1CCCNC1` [AZD-7762] showed a pIC50 of under 5.70.

Each compound was assayed on HMV-2 cell line (assay: cells). Details: Homo sapiens.
Type: functional, cell-based
Description: SANGER: Inhibition of human HMV-II cell growth in a cell viability assay.
With `NC(=O)Nc1cc(-c2cccc(F)c2)sc1C(=O)N[C@H]1CCCNC1` [AZD-7762] the pIC50 was under 5.70.

Each compound was assayed on TCC-SUP (assay: cells). Details: Homo sapiens.
Type: functional, cell-based
Description: SANGER: Inhibition of human TCCSUP cell growth in a cell viability assay.
For `NC(=O)Nc1cc(-c2cccc(F)c2)sc1C(=O)N[C@H]1CCCNC1` [AZD-7762], the pIC50 was under 5.70.

Each compound was assayed on CHP-212 (assay: cells). Details: Homo sapiens.
Type: functional, cell-based
Description: SANGER: Inhibition of human CHP-212 cell growth in a cell viability assay.
In the case of `NC(=O)Nc1cc(-c2cccc(F)c2)sc1C(=O)N[C@H]1CCCNC1` [AZD-7762], the pIC50 was 6.70.

The compounds below were run on EFO-21 (assay: cells). Details: Homo sapiens.
Type: functional, cell-based
Description: SANGER: Inhibition of human EFO-21 cell growth in a cell viability assay.
Work on `NC(=O)Nc1cc(-c2cccc(F)c2)sc1C(=O)N[C@H]1CCCNC1` [AZD-7762] yielded a pIC50 of under 5.70.

What follows are compounds tested on NCI-H1792 (assay: cells). Details: Homo sapiens.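 Also: growth inhibition of human NCI-H1792 cells, read out as cell viability.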
Type: functional, cell-based
Description: SANGER: Inhibition of human NCI-H1792 cell growth in a cell viability assay.
`NC(=O)Nc1cc(-c2cccc(F)c2)sc1C(=O)N[C@H]1CCCNC1` [AZD-7762] was tested, and the pIC50 was 6.03.

What follows are compounds tested on RH-18 (assay: cells). Details: Homo sapiens, Rh18.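 Also: growth inhibition of human RH-18 cells, read out with a cell viability assay.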
Type: functional, cell-based
Description: SANGER: Inhibition of human RH-18 cell growth in a cell viability assay.
`NC(=O)Nc1cc(-c2cccc(F)c2)sc1C(=O)N[C@H]1CCCNC1` [AZD-7762] was tested, and the pIC50 was under 5.70.

The compounds below were run on SCC-9 (assay: cells). Details: Homo sapiens.
Type: functional, cell-based
Description: SANGER: Inhibition of human SCC-9 cell growth in a cell viability assay.
Compound `NC(=O)Nc1cc(-c2cccc(F)c2)sc1C(=O)N[C@H]1CCCNC1` [AZD-7762] has a pIC50 of 5.70.

The compounds below were run on SW-620 (assay: cells). Details: Homo sapiens.
Type: functional, cell-based
Description: SANGER: Inhibition of human SW620 cell growth in a cell viability assay.
In the case of `NC(=O)Nc1cc(-c2cccc(F)c2)sc1C(=O)N[C@H]1CCCNC1` [AZD-7762], the pIC50 was 6.18.

Each compound was assayed on SK-MEL3 (assay: cells). Details: Homo sapiens.
Type: functional, cell-based, SK-MEL-3
Description: SANGER: Inhibition of human SK-MEL-3 cell growth in a cell viability assay.
Compound `NC(=O)Nc1cc(-c2cccc(F)c2)sc1C(=O)N[C@H]1CCCNC1` [AZD-7762] has a pIC50 of under 5.70.

These compounds were tested on NCI-H1693 (assay: cells). Details: Homo sapiens.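 Also: growth inhibition of the human cell line, read out with a cell viability assay.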
Type: functional, cell-based
Description: SANGER: Inhibition of human NCI-H1693 cell growth in a cell viability assay.
Work on `NC(=O)Nc1cc(-c2cccc(F)c2)sc1C(=O)N[C@H]1CCCNC1` [AZD-7762] yielded a pIC50 of 5.91.

What follows are compounds tested on BFTC-905 (assay: cells). Details: Homo sapiens.
Type: functional, cell-based
Description: SANGER: Inhibition of human BFTC-905 cell growth in a cell viability assay.
`NC(=O)Nc1cc(-c2cccc(F)c2)sc1C(=O)N[C@H]1CCCNC1` [AZD-7762] was tested, and the pIC50 was 6.01.

These compounds were tested on SNU-387 (assay: cells). Details: Homo sapiens.
Type: functional, cell-based
Description: SANGER: Inhibition of human SNU-387 cell growth in a cell viability assay.
For `NC(=O)Nc1cc(-c2cccc(F)c2)sc1C(=O)N[C@H]1CCCNC1` [AZD-7762], the pIC50 was 6.61.

These compounds were tested on UACC-893 (assay: cells). Details: Homo sapiens.
Type: functional, cell-based
Description: SANGER: Inhibition of human UACC-893 cell growth in a cell viability assay.
`NC(=O)Nc1cc(-c2cccc(F)c2)sc1C(=O)N[C@H]1CCCNC1` [AZD-7762] was tested, and the pIC50 was under 5.70.

The compounds below were run on OAW-42 (assay: cells). Details: Homo sapiens.
Type: functional, cell-based
Description: SANGER: Inhibition of human OAW-42 cell growth in a cell viability assay.
Work on `NC(=O)Nc1cc(-c2cccc(F)c2)sc1C(=O)N[C@H]1CCCNC1` [AZD-7762] yielded a pIC50 of 6.03.

The compounds below were run on D-542MG (assay: cells). Details: Homo sapiens.
Type: functional, cell-based
Description: SANGER: Inhibition of human D-542MG cell growth in a cell viability assay.
In the case of `NC(=O)Nc1cc(-c2cccc(F)c2)sc1C(=O)N[C@H]1CCCNC1` [AZD-7762], the pIC50 was under 5.70.

These compounds were tested on NBsusSR (assay: cells). Details: Homo sapiens.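 Also: growth inhibition of the human cell line, read out with a cell viability assay.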
Type: functional, cell-based
Description: SANGER: Inhibition of human NBsusSR cell growth in a cell viability assay.
`NC(=O)Nc1cc(-c2cccc(F)c2)sc1C(=O)N[C@H]1CCCNC1` [AZD-7762] was tested, and the pIC50 was 6.50.

These compounds were tested on NCI-H358 (assay: cells). Details: Homo sapiens.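 Also: growth inhibition of NCI-H358 human cells, read out with a cell viability assay.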
Type: functional, cell-based
Description: SANGER: Inhibition of human NCI-H358 cell growth in a cell viability assay.
Compound `NC(=O)Nc1cc(-c2cccc(F)c2)sc1C(=O)N[C@H]1CCCNC1` [AZD-7762] has a pIC50 of 5.84.

Each compound was assayed on ECC10 (assay: cells). Details: Homo sapiens.
Type: functional, cell-based
Description: SANGER: Inhibition of human ECC10 cell growth in a cell viability assay.
In the case of `NC(=O)Nc1cc(-c2cccc(F)c2)sc1C(=O)N[C@H]1CCCNC1` [AZD-7762], the pIC50 was under 5.70.

What follows are compounds tested on NCI-H727 (assay: cells). Details: Homo sapiens.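 Also: growth inhibition of human NCI-H727 cells, read out with a cell viability assay.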
Type: functional, cell-based
Description: SANGER: Inhibition of human NCI-H727 cell growth in a cell viability assay.
In the case of `NC(=O)Nc1cc(-c2cccc(F)c2)sc1C(=O)N[C@H]1CCCNC1` [AZD-7762], the pIC50 was 6.16.

The compounds below were run on OVCAR-3 (assay: cells). Details: Homo sapiens.
Type: functional, cell-based
Description: SANGER: Inhibition of human OVCAR-3 cell growth in a cell viability assay.
Compound `NC(=O)Nc1cc(-c2cccc(F)c2)sc1C(=O)N[C@H]1CCCNC1` [AZD-7762] has a pIC50 of 6.56.

The compounds below were run on AU565 (assay: cells). Details: Homo sapiens.
Type: functional, cell-based
Description: SANGER: Inhibition of human AU565 cell growth in a cell viability assay.
In the case of `NC(=O)Nc1cc(-c2cccc(F)c2)sc1C(=O)N[C@H]1CCCNC1` [AZD-7762], the pIC50 was 6.08.

Each compound was assayed on MCF7 (assay: cells). Details: Homo sapiens.
Type: functional, cell-based
Description: SANGER: Inhibition of human MCF7 cell growth in a cell viability assay.
`NC(=O)Nc1cc(-c2cccc(F)c2)sc1C(=O)N[C@H]1CCCNC1` [AZD-7762] was tested, and the pIC50 was under 5.70.

What follows are compounds tested on LU-135 (assay: cells). Details: Homo sapiens.
Type: functional, cell-based
Description: SANGER: Inhibition of human LU-135 cell growth in a cell viability assay.
Compound `NC(=O)Nc1cc(-c2cccc(F)c2)sc1C(=O)N[C@H]1CCCNC1` [AZD-7762] has a pIC50 of under 5.70.

Each compound was assayed on SW837 (assay: cells). Details: Homo sapiens.
Type: functional, cell-based
Description: SANGER: Inhibition of human SW837 cell growth in a cell viability assay.
Compound `NC(=O)Nc1cc(-c2cccc(F)c2)sc1C(=O)N[C@H]1CCCNC1` [AZD-7762] has a pIC50 of under 5.70.

From ChEMBL document CHEMBL1201861, “Genomics of Drug Sensitity in Cancer screening data, Wellcome Trust Sanger Institute”
